From patent US20100004159A1, “SUBSTITUTED IMIDAZOLONE DERIVATIVES, PREPARATIONS AND USES” (GENFIT, priority 2006, published 2010)

System: Wistar rats under repeated administrations of angiotensin II
Test: Arterial pressure of Wistar rats under repeated administration of angiotensin II
Type: in vivo, rat
Details: angiotensin II boluses 50, 100 and 200 ng/kg; single intravenous dose 20 mpk
Protocol: This experimental procedure is intended to show the anti-hypertensive effects of the compounds according to the invention in Wistar rats in which hypertension is induced either by continuous intravenous administration of angiotensin II (example 21.1) or by repeated intravenous administration of angiotensin II (example 21.2). The animals were treated with the compounds according to the invention intravenously at increasing doses. To validate the study, the control animals were administered, in the same conditions, either the vehicle itself or a reference.
Wistar rats (males—200-250 g—5-6 weeks old—CERJ) were anesthetized for surgery using pentobarbital (50 mg/kg). A catheter was placed in the right jugular vein for angiotensin II administration. A catheter was placed in the left jugular vein the administration of the compounds according to the invention. Boluses of angiotensin II were performed at predetermined intervals by the experimenter using a manual syringe.
The arterial pressure of the animal was measured for a few minutes at basal conditions; then three successive intravenous administrations of angiotensin II (50, 100, and 200 ng/kg) were performed. At every bolus of angiotensin II, the average arterial pressure, expressed in mm of Hg, increased in a very temporary way. […]

## CCCCC1=NC2(CCCC2)C(=O)N1Cc1ccc(-c2cccc(OC(C)(C)C(=O)O)c2)cc1 [Compound 1, 2-butyl-1-[(3′-((1-carboxy-1,1-dimethylmethyl)oxy)biphenyl-4-yl)methyl]-4-spirocyclopentyl-1H-imidazol-5(4H)-one]
  difference of arterial pressure: antagonist effect on angiotensin II: antagonist effect on angiotensin II
